US12414948B2, “Methods” (INTRA-CELLULAR THERAPIES, INC., priority 2022, dated 2025)

Columns and labels:
[1] = system: hippocampal mRNA (Il1b, Il6, Tnfa, Il10, Icam1, Cldn5, Csf1); assay: Hippocampal mRNA (qRT-PCR), delayed injection of lumateperone 30 minutes after LPS; format: in vivo, mouse; conditions: for Hippocampal mRNA expression (delayed injection) Cldn5 / Hippocampal mRNA expression (delayed injection) Csf1 / Hippocampal mRNA expression (delayed injection) Icam1: normalized to control
Protocol: (§1) All other reagents are obtained in the highest purity available from Sigma-Aldrich (St. Louis, MO) unless otherwise noted. […] Some rodents are given a cotreatment with a subcutaneous (SC) injection of lipopolysaccharide (LPS, 500 μg/kg; Sigma-Aldrich, ref #0127:B8) diluted in 0.9% injectable saline while control group animals receive injections of all vehicles matching the experimental conditions. […] On day 2, either no injection for naïve rats, or saline or LPS is injected (1 mg/kg, SC).
Quantitative Real-Time PCR. Mouse hippocampal tissue is homogenized with glass beads in 1 mL of TRIzol reagent using a BeadBeater (Biospec Products, Bartlesville, OK). Heavy phase-lock gel tubes enabled separation of phases following the addition of 400 μL chloroform to the sample and centrifugation at 12,000 rpm for 10 minutes at room temperature. RNA is extracted using Qiagen Rneasy kit (Qiagen, Hilden, Germany). For cDNA synthesis, 2 μg of total RNA is used (SuperScript IV Reverse Transcriptase; ThermoFisher Scientific, Waltham, MA). […] In the hippocampus, 4 key markers of pro- and anti-inflammatory cytokines and chemokines (Il1b: ID Mm00434228_m1, Tnfa: ID Mm00443258_m1, 116: ID Mm00446190_m1, and I110: ID Mm01288386_m1; ThermoFisher Scientific) are initially chosen for analysis (n=5-12 per group). In subsequent experiments, the transcripts for other markers of inflammation are chosen for analysis including Icam1 (ID Mm00516023_m1; a cell adhesion molecule involved in immune cell migration), Cldn5 (ID Mm00727012_s1; a tight junctions protein), colony stimulating factor 1 (Csf1: ID Mm00432686_m1; a factor that regulates microglia function) and its receptor Csf1r (ID Mm01266652_m1), and the nucleotide binding and oligomerization domain-like receptor family pyrin domain-containing 3 inflammasome complex (Nlrp3: Mm00840904_m1). Gapdh (ID Mm99999915_g1) is chosen as a housekeeping gene. QuantStudio 7 (ThermoFisher Scientific) is used for analyzing the plates (MicroAmp Optical 384-well plates; Applied Biosystems, Waltham, MA, and ThermoFisher Scientific) that are loaded with TaqMan Universal Master Mix II without uracil-DNA glycosylate in a 20 μl reaction volume using 100 ng cDNA per well. All mRNAs are measured by qRT-PCR on ABI Prism 7900HT system using TaqMan Gene Expression Assays. Ct values of genes of interest are normalized to that of the reference gene (Gapdh).
Samples are collected 1.5 hours later (i.e., 2 hours after LPS injection).

Sprague-Dawley rats = assay: Reward sniffing test (female urine sniffing test, FUST), LPS-induced anhedonia; format: in vivo, rat; conditions: rats given LPS 1 mg/kg SC, label LPS = LPS + Vehicle, label Luma = Luma 1 mg/kg IP 24 h before and 24 h after LPS
Protocol: as §1
Behavioral Evaluation. All behavioral tests are performed in the morning with adult male Sprague-Dawley rats (n=9-11 per group for the experiments with LPS, and n=13-14 per group for the naïve rats).
Reward Sniffing Test (also known also as female urine sniffing test (FUST)): In this anhedonia-based assay, rats are brought to a well-ventilated testing room under dim lighting. A sterile cotton-tipped applicator is attached to one wall in the home cage for 1 hour to habituate rats to this new object. For the 2 phases of the 5 minute test, rats are first exposed to a new cotton tip dipped in sterile water as a control that is removed at the end of the 5 minutes; 45 minutes later, another cotton tip previously dipped into fresh rat urine collected from females of the same strain is attached to the cage wall. Male behavior is video recorded and latency to first sniff of the cotton tip and total time spent sniffing the cotton-tipped applicator are determined.
In a pilot study, a dose response curve is conducted with varying doses of LPS to select an optimal dose for inducing an anhedonic response in rats. Based on these studies, a SC dose of 1 mg/kg LPS is selected. […] This is followed 24 hours later by an injection of LPS (1 mg/kg; SC). […] Control rats are administered saline instead of LPS and vehicle instead of lumateperone. Anhedonia is assessed using FUST (female urine sniffing test) and measuring latency to sniff the reward combined with time spent sniffing the reward. Latency sniffing water is used as a control. […]

[2] = LPS 500 μg/kg SC-challenged mice, label LPS = LPS + vehicle, label Luma = Luma 3 mg/kg IP 30 min after LPS, 2 h after LPS
[3] = LPS 500 μg/kg SC-challenged mice, label LPS = LPS + vehicle, label Luma = Luma 3 mg/kg IP 30 min after LPS, 2 h after LPS, normalized to control (Dct)
[4] = mice, saline SC then Luma 3 mg/kg IP 30 min later (no LPS)
[5] = mice, saline SC then Luma 3 mg/kg IP 30 min later (no LPS), samples 1.5 h later, normalized to control (Dct)

lipopolysaccharide [LPS, reference compound]
Hippocampal mRNA expression (delayed injection) Cldn5 [1, 2]: −0.63
Hippocampal mRNA expression (delayed injection) Csf1 [1, 2]: 0.41
Hippocampal mRNA expression (delayed injection) Icam1 [1, 2]: 4.33
Hippocampal cytokine mRNA expression (delayed injection) IL-1b [1, 3]: 2.89
Hippocampal cytokine mRNA expression (delayed injection) IL-6 [1, 3]: 1.10
Hippocampal cytokine mRNA expression (delayed injection) IL-10 [1, 3]: 1.88
Hippocampal cytokine mRNA expression (delayed injection) TNF-alpha [1, 3]: 2.33
FUST Latency sniffing water (Sprague-Dawley rats; control test): 274.27 s
FUST Latency sniffing reward (Sprague-Dawley rats): 164.2 s
FUST Time sniffing reward (Sprague-Dawley rats): 11.11 s

CN1CCN2c3c(cccc31)[C@@H]1CN(CCCC(=O)c3ccc(F)cc3)CC[C@@H]12 [Luma, lumateperone]
Hippocampal mRNA expression (delayed injection) Cldn5 [1, 2]: 0.20
Hippocampal mRNA expression (delayed injection) Csf1 [1, 2]: −0.11
Hippocampal cytokine mRNA expression (delayed injection) IL-6 [1, 3]: −0.10
Hippocampal cytokine mRNA expression (delayed injection) TNF-alpha [1, 3]: 0.34
Hippocampal mRNA expression (delayed injection) Cldn5 [1, 4]: 0.33
Hippocampal mRNA expression (delayed injection) Csf1 [1, 4]: 0.05
Hippocampal mRNA expression (delayed injection) Icam1 [1, 4]: 0.28
Hippocampal cytokine mRNA expression (delayed injection) IL-1b [1, 5]: 0.90
Hippocampal cytokine mRNA expression (delayed injection) IL-6 [1, 5]: −0.46
Hippocampal cytokine mRNA expression (delayed injection) TNF-alpha [1, 5]: −0.31
